Measured values: patent US20240409585A1, “MACROCYCLIC IMMUNOMODULATORS” (priority 2021, published 2024)
Bridge positions count the residues as written; N and C are the ends. Square brackets hold non-standard residues; d marks the D form. Peptide text beside a SMILES is read from it. * marks the point of attachment. ξ: configuration not given here. dPhe(3-NO2) = N[C@H](Cc1cccc([N+](=O)[O-])c1)C(=O)O; Phe(4-COOH) = N[C@@H](Cc1ccc(C(=O)O)cc1)C(=O)O; Bip = N[C@@H](Cc1ccc(-c2ccccc2)cc1)C(=O)O; Phe(3-Br) = N[C@@H](Cc1cccc(Br)c1)C(=O)O; Phe(3-Me) = Cc1cccc(C[C@H](N)C(=O)O)c1; 2Nal = N[C@@H](Cc1ccc2ccccc2c1)C(=O)O; Val(3-OH) = CC(C)(O)[C@H](N)C(=O)O; aIle = CC[C@@H](C)[C@H](N)C(=O)O; 4Pal = N[C@@H](Cc1ccncc1)C(=O)O; Cha = N[C@@H](CC1CCCCC1)C(=O)O; Cit = NC(=O)NCCC[C@H](N)C(=O)O; Thr(3ξ) = CC(O)[C@H](N)C(=O)O; Carboxymethyl = O=C(O)C*; NMeA = CN[C@@H](C)C(=O)O; Pra = C#CC[C@H](N)C(=O)O; Dab = NCC[C@H](N)C(=O)O; ξV = CC(C)C(N)C(=O)O; Propargyl = C#CC*

Biological target: T1, PE-labeled human PD-L1-Ig binding to Jurkat cell line over-expressing human PD-1 (Jurkat-PD-1) (Homo sapiens, UniProt Q15116)
T1 construct: expressed in transfected cells; host or cells: Jurkat
Assay: Jurkat-PD-1 Cell Binding High-Content Screening Assay (CBA): Method 1
Details: Jurkat-hPD-1 cells, PE-labeled PD-L1-Ig 20 nM final; read-out: Jurkat HPDL1 PD1 IC50 (uM) (Method 1)

T1 sequence (Q15116 25-288): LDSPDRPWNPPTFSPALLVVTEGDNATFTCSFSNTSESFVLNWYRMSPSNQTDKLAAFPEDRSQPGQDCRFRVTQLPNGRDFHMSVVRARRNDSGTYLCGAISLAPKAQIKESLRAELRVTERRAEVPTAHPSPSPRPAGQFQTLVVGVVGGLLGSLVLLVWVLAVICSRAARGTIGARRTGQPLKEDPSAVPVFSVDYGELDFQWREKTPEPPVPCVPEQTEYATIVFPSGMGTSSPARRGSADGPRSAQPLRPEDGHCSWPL

| SMILES | IC50 [µM] |
| --- | --- |
| C#CC[C@H](NC(=O)CNC(=O)[C@@H]1CSCC(=O)N[C@@H](Cc2ccc(OCC(=O)O)cc2)C(=O)N[C@@H](Cc2ccc(C(=O)O)cc2)C(=O)N[C@@H](CC(=O)O)C(=O)N[C@@H](Cc2c[nH]c3ccccc23)C(=O)N[C@@H](CC(C)C)C(=O)N[C@@H](Cc2ccc(-c3ccccc3)cc2)C(=O)N[C@@H](C(C)C)C(=O)N(C)[C@@H](C)C(=O)N[C@H](CC(C)C)C(=O)N[C@@H](CCN)C(=O)N[C@@H](CC2CCCCC2)C(=O)N[C@@H](C(C)(C)O)C(=O)N[C@@H](CO)C(=O)N1)C(N)=O [Compound 1933] ({CH2CO}-Y(Carboxymethyl)[Phe(4-COOH)]DWL[Bip]V[NMeA][dL][Dab][Cha][Val(3-OH)]SCG[Pra]-NH2; thioether N-14) | 0.01 |
| Cc1cccc(C[C@@H]2NC(=O)[C@H](CC(=O)O)NC(=O)[C@H](Cc3ccc(O)cc3)NC(=O)[C@H](CC(N)=O)NC(=O)CSC[C@@H](C(N)=O)NC(=O)[C@H]([C@@H](C)O)NC(=O)[C@H](C(C)C)NC(=O)[C@H](CC(C)C)NC(=O)[C@H](CCN)NC(=O)[C@@H](CC(C)C)NC(=O)[C@H](C)N(C)C(=O)[C@H](CCCNC(N)=O)NC(=O)[C@H](Cc3ccc(-c4ccccc4)cc3)NC(=O)[C@H](C(C)C)NC2=O)c1 [Compound 1641] ({CH2CO}-NYD[Phe(3-Me)]V[Bip][Cit][NMeA][dL][Dab]LVTC-NH2; thioether N-14) | 0.14 |
| CC(C)C[C@@H]1NC(=O)[C@H](Cc2c[nH]c3ccccc23)NC(=O)[C@H](CC(=O)O)NC(=O)[C@H](Cc2ccc3ccccc3c2)NC(=O)[C@H](Cc2ccccc2)NC(=O)CSC[C@@H](C(=O)N[C@@H](C)C(N)=O)NC(=O)[C@H](CO)NC(=O)[C@H](C(C)C)NC(=O)[C@H](CC(C)C)NC(=O)[C@H](CC(N)=O)NC(=O)[C@@H](C)NC(=O)[C@H](C)N(C)C(=O)[C@H](C(C)C)NC(=O)[C@H](Cc2ccc(-c3ccccc3)cc2)NC1=O [Compound 1800] ({CH2CO}-F[2Nal]DWL[Bip]V[NMeA][dA]NLVSCA-NH2; thioether N-14) | 0.18 |
| CC(C)C[C@@H]1NC(=O)[C@H](Cc2c[nH]c3ccccc23)NC(=O)[C@H](CC(=O)O)NC(=O)[C@H](Cc2ccc(C(=O)O)cc2)NC(=O)[C@H](Cc2ccc(OCC(=O)O)cc2)NC(=O)CSC[C@@H](C(=O)N[C@H](C)C(N)=O)NC(=O)[C@H](CO)NC(=O)[C@H](C(C)(C)O)NC(=O)[C@H](CC2CCCCC2)NC(=O)[C@H](CCN)NC(=O)[C@@H](CC(C)C)NC(=O)[C@H](C)N(C)C(=O)[C@H](C(C)(C)O)NC(=O)[C@H](Cc2ccc(-c3ccccc3)cc2)NC1=O [Compound 1714] ({CH2CO}-Y(Carboxymethyl)[Phe(4-COOH)]DWL[Bip][Val(3-OH)][NMeA][dL][Dab][Cha][Val(3-OH)]SC[dA]-NH2; thioether N-14) | 0.02 |
| CC(=O)NCCCC[C@@H]1NC(=O)[C@H](Cc2ccc(-c3ccccc3)cc2)NC(=O)[C@H](Cc2ccc(O)cc2)NC(=O)[C@H](Cc2cccc(C)c2)NC(=O)[C@H](CC(=O)O)NC(=O)[C@H](Cc2ccc(OCC(=O)O)cc2)NC(=O)[C@H](C(C)O)NC(=O)CSC[C@@H](C(N)=O)NC(=O)[C@H](C(C)O)NC(=O)[C@H](C(C)C)NC(=O)[C@H](CC2CCCCC2)NC(=O)[C@H](CCN)NC(=O)[C@@H](CC(C)C)NC(=O)[C@H](C)N(C)C1=O (stereo partly drawn) [Compound 2255] ({CH2CO}-[Thr(3ξ)]Y(Carboxymethyl)D[Phe(3-Me)]Y[Bip]K(Ac)[NMeA][dL][Dab][Cha]V[Thr(3ξ)]C-NH2; thioether N-14) | 0.06 |
| Cc1cccc(C[C@@H]2NC(=O)[C@H](CC(=O)O)NC(=O)[C@H](Cc3ccc(OCC(=O)O)cc3)NC(=O)[C@H](Cc3ccncc3)NC(=O)CSC[C@@H](C(=O)N[C@@H](CCN)C(N)=O)NC(=O)[C@H](CCC(=O)O)NC(=O)[C@H](C(C)(C)O)NC(=O)[C@H](CC3CCCCC3)NC(=O)[C@H](CCN)NC(=O)[C@@H](CC(C)C)NC(=O)[C@H](C)N(C)C(=O)[C@H](Cc3ccc(OCC(=O)O)cc3)NC(=O)[C@H](Cc3ccc(-c4ccccc4)cc3)NC(=O)[C@H](Cc3ccc(OCC(=O)O)cc3)NC2=O)c1 [Compound 2188] ({CH2CO}-[4Pal]Y(Carboxymethyl)D[Phe(3-Me)]Y(Carboxymethyl)[Bip]Y(Carboxymethyl)[NMeA][dL][Dab][Cha][Val(3-OH)]EC[Dab]-NH2; thioether N-14) | 0.02 |
| C#CCOc1ccc(C[C@@H]2NC(=O)[C@H](CC(N)=O)NC(=O)CSC[C@@H](C(=O)N[C@@H](C)C(N)=O)NC(=O)[C@H]([C@@H](C)O)NC(=O)[C@H](C(C)C)NC(=O)[C@H](CC(C)C)NC(=O)[C@H](CCN)NC(=O)[C@@H](CC(C)C)NC(=O)[C@H](C)N(C)C(=O)[C@H](CCCNC(=N)N)NC(=O)[C@H](Cc3ccc(-c4ccccc4)cc3)NC(=O)[C@H](C(C)C)NC(=O)[C@H](Cc3c[nH]c4ccccc34)NC(=O)[C@H](CC(=O)O)NC2=O)cc1 [Compound 1208] ({CH2CO}-NY(Propargyl)DWV[Bip]R[NMeA][dL][Dab]LVTCA-NH2; thioether N-14) | 0.14 |
| C#CC[C@H](NC(=O)[C@H](CCN)NC(=O)[C@@H]1CSCC(=O)N[C@@H]([C@@H](C)O)C(=O)N[C@@H](Cc2ccc(OCC(=O)O)cc2)C(=O)N[C@@H](CC(=O)O)C(=O)N[C@@H](Cc2cccc(C)c2)C(=O)N[C@@H](Cc2ccc(OCC(=O)O)cc2)C(=O)N[C@@H](Cc2ccc(-c3ccccc3)cc2)C(=O)N[C@@H](Cc2ccc(OCC(=O)O)cc2)C(=O)N(C)[C@@H](C)C(=O)N[C@H](CC(C)C)C(=O)N[C@@H](CCN)C(=O)N[C@@H](CC2CCCCC2)C(=O)N[C@@H](C(C)(C)O)C(=O)N[C@@H](CCC(=O)O)C(=O)N1)C(=O)O [Compound 1937] ({CH2CO}-TY(Carboxymethyl)D[Phe(3-Me)]Y(Carboxymethyl)[Bip]Y(Carboxymethyl)[NMeA][dL][Dab][Cha][Val(3-OH)]EC[Dab][Pra]-OH; thioether N-14) | 0.07 |
| Cc1cccc(C[C@@H]2NC(=O)[C@H](CC(=O)O)NC(=O)[C@H](Cc3ccc(O)cc3)NC(=O)[C@H](CC(N)=O)NC(=O)CSC[C@@H](C(=O)N[C@@H](C)C(N)=O)NC(=O)[C@H]([C@@H](C)O)NC(=O)[C@H](C(C)C)NC(=O)[C@H](CC(C)C)NC(=O)[C@H](CCCNC(=N)N)NC(=O)[C@@H](CC(C)C)NC(=O)[C@H](C)N(C)C(=O)[C@H](C(C)C)NC(=O)[C@H](Cc3ccc(-c4ccccc4)cc3)NC(=O)[C@H](C(C)C)NC2=O)c1 [Compound 1273] ({CH2CO}-NYD[Phe(3-Me)]V[Bip]V[NMeA][dL]RLVTCA-NH2; thioether N-14) | 0.01 |
| CC(C)C[C@@H]1NC(=O)[C@H](CCCNC(=N)N)NC(=O)[C@@H](CC(C)C)NC(=O)[C@H](C)N(C)C(=O)[C@H](CCC(=O)O)NC(=O)[C@H](Cc2ccc(-c3ccccc3)cc2)NC(=O)[C@H](C(C)C)NC(=O)[C@H](Cc2c[nH]c3ccccc23)NC(=O)[C@H](CC(=O)O)NC(=O)[C@H](Cc2ccc(O)cc2)NC(=O)[C@H](CC(N)=O)NC(=O)CSC[C@@H](C(=O)N[C@@H](C)C(N)=O)NC(=O)[C@H]([C@@H](C)O)NC(=O)[C@H](C(C)C)NC1=O [Compound 1254] ({CH2CO}-NYDWV[Bip]E[NMeA][dL]RLVTCA-NH2; thioether N-14) | 0.03 |
| CC(C)C[C@@H]1NC(=O)[C@H](CCN)NC(=O)[C@@H](CC(C)C)NC(=O)[C@H](C)N(C)C(=O)[C@H](CCCNC(=N)N)NC(=O)[C@H](Cc2ccc(-c3ccccc3)cc2)NC(=O)[C@H](C(C)C)NC(=O)[C@H](Cc2cccc(Br)c2)NC(=O)[C@H](CC(=O)O)NC(=O)[C@H](Cc2ccc(O)cc2)NC(=O)[C@H](CC(N)=O)NC(=O)CSC[C@@H](C(=O)N[C@@H](C)C(N)=O)NC(=O)[C@H]([C@@H](C)O)NC(=O)[C@H](C(C)C)NC1=O [Compound 1217] ({CH2CO}-NYD[Phe(3-Br)]V[Bip]R[NMeA][dL][Dab]LVTCA-NH2; thioether N-14) | 0.06 |
| CC[C@@H](C)[C@@H]1NC(=O)[C@H](Cc2ccc(-c3ccccc3)cc2)NC(=O)[C@H](CC(C)C)NC(=O)[C@H](Cc2c[nH]c3ccccc23)NC(=O)[C@H](CC(=O)O)NC(=O)[C@H](Cc2ccc(C(=O)O)cc2)NC(=O)[C@H](Cc2ccc(OCC(=O)O)cc2)NC(=O)CSC[C@@H](C(=O)N[C@@H](CCCCN)C(N)=O)NC(=O)[C@H](CC(=O)O)NC(=O)C(C(C)C)NC(=O)[C@H](CC(C)C)NC(=O)[C@H](CC(N)=O)NC(=O)[C@@H](CC(C)C)NC(=O)[C@H](C)N(C)C1=O (stereo partly drawn) [Compound 2105] ({CH2CO}-Y(Carboxymethyl)[Phe(4-COOH)]DWL[Bip][aIle][NMeA][dL]NL[ξV]DCK-NH2; thioether N-14) | 0.1 |
| CC(C)C[C@@H]1NC(=O)[C@H](CCCNC(=N)N)NC(=O)[C@@H](Cc2cccc([N+](=O)[O-])c2)NC(=O)[C@H](C)N(C)C(=O)[C@H](CCCNC(=N)N)NC(=O)[C@H](Cc2ccc(-c3ccccc3)cc2)NC(=O)[C@H](C(C)C)NC(=O)[C@H](Cc2c[nH]c3ccccc23)NC(=O)[C@H](CC(=O)O)NC(=O)[C@H](Cc2ccc(O)cc2)NC(=O)[C@H](Cc2ccccc2)NC(=O)CSC[C@@H](C(=O)N[C@@H](C)C(N)=O)NC(=O)[C@H]([C@@H](C)O)NC(=O)[C@H](C(C)C)NC1=O [Compound 1074] ({CH2CO}-FYDWV[Bip]R[NMeA][dPhe(3-NO2)]RLVTCA-NH2; thioether N-14) | 0.11 |
| CC(C)C[C@@H]1NC(=O)[C@H](CCCCN)NC(=O)[C@@H](CC(C)C)NC(=O)[C@H](C)N(C)C(=O)[C@H](Cc2cnc[nH]2)NC(=O)[C@H](Cc2ccc(-c3ccccc3)cc2)NC(=O)[C@H](C(C)C)NC(=O)[C@H](Cc2c[nH]c3ccccc23)NC(=O)[C@H](CC(=O)O)NC(=O)[C@H](Cc2ccc(O)cc2)NC(=O)[C@H](CC(N)=O)NC(=O)CSC[C@@H](C(=O)NCC(N)=O)NC(=O)[C@H](CO)NC(=O)[C@H](C(C)C)NC1=O [Compound 1483] ({CH2CO}-NYDWV[Bip]H[NMeA][dL]KLVSCG-NH2; thioether N-14) | 0.06 |
